Publication PMC5234788 (PLoS ONE, 2017)
Where “and” joins values, the source holds several entries; their conditions need not be identical. Equal entries are not always repeated.

Tests used:
[1] = test system: T1, Dopamine, D1 (h); experiment: Radio-ligand binding assay, Dopamine D1; design: species or system human; conditions: 10 μM l-THBr
T1 construct: Caliper Lifescience
Protocol: (§1) To determine the possible targets of l-THBr action, the binding affinities of l-THBr to neurotransmitter receptors known to be involved in sedation, hypnosis and anxiety were investigated. Radio-ligand binding assays were performed by Caliper Lifescience (Hopkinton, MA, USA). The screening was carried out at a concentration of 10 μM l–THBr to test its ability to inhibit the binding of radioligands to their corresponding receptors. The results were expressed as percentage of inhibition of labeled ligand binding to individual receptors. Significant binding activity was defined as ≥50%.

[2] = test system: T2, Dopamine, D4.4 (h); experiment: Radio-ligand binding assay, Dopamine D4.4; design: species or system human; conditions: 10 μM l-THBr
T2 construct: Caliper Lifescience
Protocol: as §1

[3] = test system: Glutamate, AMPA Site (Ionotropic); experiment: Radio-ligand binding assay, Glutamate AMPA site; conditions: 10 μM l-THBr; radioligand [3H]AMPA
Protocol: as §1

[4] = test system: Glutamate, MK-801 (Ionotropic); experiment: Radio-ligand binding assay, Glutamate MK-801; conditions: 10 μM l-THBr; radioligand [3H] MK-801
Protocol: as §1

[5] = test system: Glutamate, NMDA, Phencyclidine Site (Ionotropic); experiment: Radio-ligand binding assay, Glutamate NMDA phencyclidine site; conditions: 10 μM l-THBr; radioligand [3H]TCP
Protocol: as §1

[6] = test system: T3, Serotonin Transporter; experiment: Radio-ligand binding assay, Serotonin Transporter; conditions: 10 μM l-THBr; radioligand [3H]Citalopram,N-Methyl
T3 construct: Caliper Lifescience
Protocol: as §1

[7] = test system: T4, Serotonin, 5HT3; experiment: Radio-ligand binding assay, Serotonin 5HT3; conditions: 10 μM l-THBr; radioligand [3H]GR 65630
T4 construct: Caliper Lifescience
Protocol: as §1

[8] = molecular target: D1 receptor (Homo sapiens, UniProt P21728); experiment: cAMP assay for D1 receptor activity in CHO cells; assay type: cell-based
Sequence of D1 receptor (P21728 whole entry): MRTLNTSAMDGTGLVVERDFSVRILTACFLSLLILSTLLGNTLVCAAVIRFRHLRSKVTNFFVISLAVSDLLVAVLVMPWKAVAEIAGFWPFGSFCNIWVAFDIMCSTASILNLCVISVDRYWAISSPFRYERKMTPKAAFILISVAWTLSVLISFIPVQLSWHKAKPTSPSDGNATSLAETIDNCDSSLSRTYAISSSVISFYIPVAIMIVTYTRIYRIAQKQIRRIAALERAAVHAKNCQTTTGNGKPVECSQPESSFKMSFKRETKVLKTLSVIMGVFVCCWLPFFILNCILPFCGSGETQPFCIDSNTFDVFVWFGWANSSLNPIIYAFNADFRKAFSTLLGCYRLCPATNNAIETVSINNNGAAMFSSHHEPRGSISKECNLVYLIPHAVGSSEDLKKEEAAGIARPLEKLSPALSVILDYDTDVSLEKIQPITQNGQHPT
Source text: Dopamine receptors can be categorized into two classes: Gαs protein coupled receptors (D1 and D5), or Gαi protein coupled receptors (D2, D3, and D4). Activation of D1 receptors can excite adenylate cyclase activity and increase cyclic adenosine monophosphate (cAMP). cAMP assays were used to determine the agonist or antagonist properties of l-THBr at the dopamine D1 receptor.
CHO K1 cells stably expressing D1 receptors were purchased from Genscript (Catalogue Number: M00247, Gene Number NM_000794). The cells were seeded in Ham’s F12 containing 10% fetal bovine serum and 200 μg/ml zeocin. On the day of the assay, 5 μl of cell suspension (3000 cells) was seeded on a 384-well plate. The assay was performed according to the manufacturer’s instructions. To test for agonist effects at the D1 receptor, the compounds (a known D1 agonist […] or l-THBr) were added from stocks two-fold more concentrated than the final concentration. […] After incubation (30 min at room temperature), 10 μL of HTRF reagents (cAMP-XL665 and anti-cAMP cryptate) were added. The signal was quantified after one hour of incubation at room temperature. The fluorescence intensity ratio (A665nm/A620nm x10^4) was calculated.

[9] = molecular target: T5, 5-HT1A receptors in rat hippocampus (Rattus norvegicus, UniProt P19327); experiment: [35S]GTPγS assay for 5-HT1A receptor activity in rat hippocampus; assay type: biochemical; conditions: rat hippocampus membranes; read-out: EC50, increase in [35S]GTPγS binding
T5 construct: rat hippocampal tissues highly expressing 5-HT1A receptors were prepared as previously described; from tissue; host or cells: SD rat hippocampus membranes
T5 sequence (P19327 whole entry): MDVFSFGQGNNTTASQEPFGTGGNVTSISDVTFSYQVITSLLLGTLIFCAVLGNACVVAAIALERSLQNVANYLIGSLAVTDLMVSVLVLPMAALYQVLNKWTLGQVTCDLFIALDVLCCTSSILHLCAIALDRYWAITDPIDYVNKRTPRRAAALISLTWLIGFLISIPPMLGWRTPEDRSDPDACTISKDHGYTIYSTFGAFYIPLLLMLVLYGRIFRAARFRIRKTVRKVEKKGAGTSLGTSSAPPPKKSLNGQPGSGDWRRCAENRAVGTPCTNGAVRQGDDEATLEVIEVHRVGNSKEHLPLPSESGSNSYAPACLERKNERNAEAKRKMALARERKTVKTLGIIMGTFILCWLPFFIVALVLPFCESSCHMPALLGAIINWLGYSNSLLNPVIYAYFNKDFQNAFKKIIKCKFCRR
Source text: D2-D4 dopamine receptors and 5-HT1A serotonin receptors are Gαi-coupled receptors that mediate inhibitory neurotransmission. We conducted [^35S]GTPγS assays to determine the agonist or antagonist properties of l-THBr at D2 dopamine receptors or 5-HT1A serotonin receptors. HEK293 cells stably expressing D2 receptors were provided by the Beijing Institute of Pharmacology and Toxicology (Beijing, China). The membrane preparation of D2-expressing HEK293 cells and rat hippocampal tissues highly expressing 5-HT1A receptors were prepared as previously described. Briefly, 10 SD rats were anesthetized and decapitated, and the hippocampi were quickly dissected and stored at -80°C until use. D2 receptor-expressing HEK293 cells and the hippocampal tissue were each homogenized at 4°C in 50 mM Tris-HCl buffer (pH 7.4). The homogenates were centrifuged at 2500 × g for 6 min, and the supernatant was further centrifuged for 20 min at 40000 × g. Membranes were re-suspended in Tris-HCl buffer and stored at -80°C until use.
[^35S]GTPγS assays were performed in a total volume of 0.5 ml at 4°C. […] Bound radioactivity was determined by liquid scintillation counting. Drug effects were expressed as drug-induced increase in binding over basal binding (binding in the absence of drugs). […] The inhibitory effect of l–THBr was determined by a similar equation to obtain the IC50 values.

[10] = test system: male CD-1 ICR mice; experiment: Locomotor activity test; assay type: in vivo; conditions: l-THBr 1, 5, or 10 mg/kg, i.p., 60 min
Source text: The spontaneous activity video analysis system consists of 8 sound-attenuated chambers (40 cm × 40 cm × 65 cm) with a built-in infrared camera. (JL Behave, Shanghai Ji-Liang Software Technology Co., Ltd). During the behavioral tests, the experimenter was outside the testing room, and the chambers were cleaned between successive runs. Forty male CD-1 ICR mice were allowed to acclimate for three days in home cages and were handled for another three days to minimize stress after arrival in the animal facility. On the following day, after habituation to the activity chambers for 60 min, mice were administered vehicle, diazepam (DZP, 2 mg/kg, i.p.) or l–THBr (1, 5, or 10 mg/kg, i.p.) and immediately placed into the test chambers to record their locomotor activity for 60 min.

[11] = test system: male CD-1 ICR mice; experiment: Light-dark box test; assay type: in vivo; conditions: l-THBr 1 or 5 mg/kg i.p., 30 min before test, P < 0.05 vs vehicle
Source text: The light-dark box test is a sensitive model to detect activity in disorders related to anxiety, based on the innate aversion of rodents to brightly lit areas and on their spontaneous exploratory behavior in response to a novel environment. The light-dark transition box is a polypropylene animal cage (44 cm × 21 cm × 21 cm), which is divided into two compartments, a light box (illuminated by a 60 W light source with 1000 lx light intensity) and a dark box. Forty-eight male CD-1 ICR mice were placed in the light box 30 min after l–THBr or DZP injection and allowed to move freely to both boxes for 5 min. The number of transitions between the two boxes were recorded by a video camera.

Structure (SMILES): COc1ccc2c(c1O)CN1CCc3cc4c(cc3[C@@H]1C2)OCO4 [l-THBr, levo-tetrahydroberberrubine]
- Activity [1]: Yes (Significant binding affinity of l-THBr was defined as greater than 50% inhibition of ligand binding)
- Average inhibition percentage ([1]; radioligand [3H]-SCH23390): 100.6% and 100.61%
- Activity [2]: Yes (Significant binding affinity of l-THBr was defined as greater than 50% inhibition of ligand binding)
- Average inhibition percentage ([2]; radioligand [3H]-YM-09151-2): 79.55%
- Average inhibition percentage [3]: 0.31%
- Average inhibition percentage [4]: 6.41%
- Average inhibition percentage [5]: -12.74%
- Average inhibition percentage [6]: 34.43%
- Average inhibition percentage [7]: 23.02%
- IC50 [8]: 361 nM
- dose-dependent increase in cAMP production (agonist effect) ([8]; CHO cells stably expressing the D1 receptor, agonist test): but not l-THBr induced a dose-dependent increase
- inhibition at 10 µM ([8]; CHO, read-out: maximum inhibition of cAMP production): 98.8%
- EC50 [9]: 235 nM
- influence on locomotor activity (travel distance) [10]: no influence
- number of transitions between the light/dark sides [11]: increased
